Experimental data: PMC6407913, “DREADD Agonist 21 Is an Effective Agonist for Muscarinic-Based DREADDs in Vitro and in Vivo” (ACS Pharmacology & Translational Science, 2018)
Values joined by “and” are separate entries in the source; they are usually repeats but may differ in a detail not shown here. Identical values can stand only once.

Columns and labels:
Type in all cases: cell-based
[1] = molecular target: T1, 318 nonolfactory human GPCRs (Homo sapiens, UniProt P04201); conditions: MAS1; C21 5 µM
T1 construct: expressed in transfected cells; host or cells: HTLA cells, transient

[2] = molecular target: T2, 318 nonolfactory human GPCRs (Homo sapiens, UniProt P35367); conditions: HRH1; C21 5 µM
T2 construct: expressed in transfected cells; host or cells: HTLA cells, transient

[3] = molecular target: T3, 318 nonolfactory human GPCRs (Homo sapiens, UniProt P34969); conditions: HTR7; C21 5 µM
T3 construct: expressed in transfected cells; host or cells: HTLA cells, transient

[4] = molecular target: T4, 318 nonolfactory human GPCRs (Homo sapiens, UniProt Q99527); conditions: GPER; C21 5 µM
T4 construct: expressed in transfected cells; host or cells: HTLA cells, transient

[5] = molecular target: 318 nonolfactory human GPCRs (Homo sapiens, UniProt P28221); conditions: HTR1D; C21 5 µM
Sequence of 318 nonolfactory human GPCRs (Homo sapiens, UniProt P28221) (P28221 whole entry): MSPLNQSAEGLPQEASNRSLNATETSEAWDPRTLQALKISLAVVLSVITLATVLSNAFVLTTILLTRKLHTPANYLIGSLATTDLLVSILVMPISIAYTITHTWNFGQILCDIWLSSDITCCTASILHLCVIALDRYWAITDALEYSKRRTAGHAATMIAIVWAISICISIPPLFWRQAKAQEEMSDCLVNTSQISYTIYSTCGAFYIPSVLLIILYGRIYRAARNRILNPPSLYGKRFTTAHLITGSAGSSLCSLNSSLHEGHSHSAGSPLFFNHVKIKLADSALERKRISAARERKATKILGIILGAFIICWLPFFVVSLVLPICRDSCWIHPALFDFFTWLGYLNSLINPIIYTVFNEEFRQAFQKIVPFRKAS

[6] = molecular target: T5, 318 nonolfactory human GPCRs (Homo sapiens, UniProt Q8WXD0); conditions: RXFP2; C21 5 µM
T5 construct: expressed in transfected cells; host or cells: HTLA cells, transient

[7] = molecular target: T6, 318 nonolfactory human GPCRs (Homo sapiens, UniProt P30518); conditions: AVPR2; C21 5 µM
T6 construct: expressed in transfected cells; host or cells: HTLA cells, transient

[8] = molecular target: T7, 318 nonolfactory human GPCRs (Homo sapiens, UniProt Q13324); conditions: CRHR2; C21 5 µM
T7 construct: expressed in transfected cells; host or cells: HTLA cells, transient

[9] = molecular target: T8, 318 nonolfactory human GPCRs (Homo sapiens, UniProt P25106); conditions: CXCR7; C21 5 µM
T8 construct: expressed in transfected cells; host or cells: HTLA cells, transient
T8 sequence (P25106 whole entry): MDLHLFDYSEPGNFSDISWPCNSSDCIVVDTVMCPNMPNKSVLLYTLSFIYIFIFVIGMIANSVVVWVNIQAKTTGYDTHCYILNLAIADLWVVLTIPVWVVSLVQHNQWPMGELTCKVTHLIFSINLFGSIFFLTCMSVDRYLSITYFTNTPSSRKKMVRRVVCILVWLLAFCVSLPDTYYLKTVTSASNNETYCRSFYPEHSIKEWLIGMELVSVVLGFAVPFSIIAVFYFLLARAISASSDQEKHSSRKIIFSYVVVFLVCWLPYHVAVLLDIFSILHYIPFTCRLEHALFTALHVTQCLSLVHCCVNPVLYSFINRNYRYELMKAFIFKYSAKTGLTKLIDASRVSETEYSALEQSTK

[10] = molecular target: T9, 318 nonolfactory human GPCRs (Homo sapiens, UniProt P47898); conditions: HTR5; C21 5 µM
T9 construct: expressed in transfected cells; host or cells: HTLA cells, transient
T9 sequence (P47898 whole entry): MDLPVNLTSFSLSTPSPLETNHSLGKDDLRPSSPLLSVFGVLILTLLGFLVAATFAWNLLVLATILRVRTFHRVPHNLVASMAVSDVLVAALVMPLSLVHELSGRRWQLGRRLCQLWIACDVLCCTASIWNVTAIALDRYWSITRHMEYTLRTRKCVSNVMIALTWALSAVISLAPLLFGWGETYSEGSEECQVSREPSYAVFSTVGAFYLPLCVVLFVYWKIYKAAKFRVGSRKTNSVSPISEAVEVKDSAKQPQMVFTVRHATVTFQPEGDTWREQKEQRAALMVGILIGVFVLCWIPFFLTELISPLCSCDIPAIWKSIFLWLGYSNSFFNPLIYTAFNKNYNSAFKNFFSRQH

[11] = molecular target: T10, 318 nonolfactory human GPCRs (Homo sapiens, UniProt P41594); conditions: GRM5; C21 5 µM
T10 construct: expressed in transfected cells; host or cells: HTLA cells, transient

[12] = molecular target: 318 nonolfactory human GPCRs (Homo sapiens, UniProt P32238); conditions: CCKAR; C21 5 µM
Sequence of 318 nonolfactory human GPCRs (Homo sapiens, UniProt P32238) (P32238 whole entry): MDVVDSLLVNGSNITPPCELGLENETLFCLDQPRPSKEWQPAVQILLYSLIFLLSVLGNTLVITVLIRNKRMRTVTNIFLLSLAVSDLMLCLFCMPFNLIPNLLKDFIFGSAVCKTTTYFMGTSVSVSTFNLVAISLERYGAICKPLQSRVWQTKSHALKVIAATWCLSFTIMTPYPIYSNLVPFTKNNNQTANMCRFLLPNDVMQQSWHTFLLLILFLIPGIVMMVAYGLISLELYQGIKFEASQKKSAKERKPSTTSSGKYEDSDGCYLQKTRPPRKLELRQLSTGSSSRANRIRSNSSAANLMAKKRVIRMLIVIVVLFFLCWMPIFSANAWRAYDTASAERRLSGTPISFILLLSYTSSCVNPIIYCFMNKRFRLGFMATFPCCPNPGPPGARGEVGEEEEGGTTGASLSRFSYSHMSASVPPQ

[13] = molecular target: T11, 318 nonolfactory human GPCRs (Homo sapiens, UniProt P08908); conditions: HTR1A; C21 5 µM
T11 construct: expressed in transfected cells; host or cells: HTLA cells, transient

[14] = molecular target: T12, 318 nonolfactory human GPCRs (Homo sapiens, UniProt P48039); conditions: MTNR1A; C21 5 µM
T12 construct: expressed in transfected cells; host or cells: HTLA cells, transient

[15] = molecular target: T13, 318 nonolfactory human GPCRs (Homo sapiens, UniProt P30559); conditions: OXTR; C21 5 µM
T13 construct: expressed in transfected cells; host or cells: HTLA cells, transient

[16] = molecular target: T14, 318 nonolfactory human GPCRs (Homo sapiens, UniProt Q8NFN8); conditions: GPR156; C21 5 µM
T14 construct: expressed in transfected cells; host or cells: HTLA cells, transient
T14 sequence (Q8NFN8 whole entry): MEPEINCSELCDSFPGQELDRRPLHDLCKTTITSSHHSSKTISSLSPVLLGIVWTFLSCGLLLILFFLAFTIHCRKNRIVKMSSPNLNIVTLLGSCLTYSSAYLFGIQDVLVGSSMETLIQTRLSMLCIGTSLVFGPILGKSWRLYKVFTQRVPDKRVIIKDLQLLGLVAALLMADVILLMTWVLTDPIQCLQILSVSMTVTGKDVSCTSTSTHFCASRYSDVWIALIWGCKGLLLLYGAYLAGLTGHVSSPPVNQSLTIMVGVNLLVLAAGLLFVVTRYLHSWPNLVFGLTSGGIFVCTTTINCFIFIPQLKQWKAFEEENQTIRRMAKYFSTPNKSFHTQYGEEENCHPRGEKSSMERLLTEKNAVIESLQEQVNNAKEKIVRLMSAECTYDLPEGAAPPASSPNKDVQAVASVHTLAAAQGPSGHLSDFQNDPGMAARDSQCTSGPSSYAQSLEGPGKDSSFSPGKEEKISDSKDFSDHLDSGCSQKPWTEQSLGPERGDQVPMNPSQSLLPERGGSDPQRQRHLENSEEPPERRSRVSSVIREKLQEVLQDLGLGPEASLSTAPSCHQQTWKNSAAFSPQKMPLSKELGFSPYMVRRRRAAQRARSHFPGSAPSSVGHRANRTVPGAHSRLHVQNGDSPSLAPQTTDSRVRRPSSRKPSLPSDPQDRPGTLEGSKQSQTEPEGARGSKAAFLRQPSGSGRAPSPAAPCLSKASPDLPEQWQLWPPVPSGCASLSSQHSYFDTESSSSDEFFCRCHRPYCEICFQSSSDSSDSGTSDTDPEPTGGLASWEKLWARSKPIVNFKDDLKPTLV

[17] = molecular target: T15, 318 nonolfactory human GPCRs (Homo sapiens, UniProt Q9NS75); conditions: CYSLTR2; C21 5 µM
T15 construct: expressed in transfected cells; host or cells: HTLA cells, transient

[18] = molecular target: T16, 318 nonolfactory human GPCRs (Homo sapiens, UniProt O15354); conditions: GPR37; C21 5 µM
T16 construct: expressed in transfected cells; host or cells: HTLA cells, transient
T16 sequence (O15354 27-613): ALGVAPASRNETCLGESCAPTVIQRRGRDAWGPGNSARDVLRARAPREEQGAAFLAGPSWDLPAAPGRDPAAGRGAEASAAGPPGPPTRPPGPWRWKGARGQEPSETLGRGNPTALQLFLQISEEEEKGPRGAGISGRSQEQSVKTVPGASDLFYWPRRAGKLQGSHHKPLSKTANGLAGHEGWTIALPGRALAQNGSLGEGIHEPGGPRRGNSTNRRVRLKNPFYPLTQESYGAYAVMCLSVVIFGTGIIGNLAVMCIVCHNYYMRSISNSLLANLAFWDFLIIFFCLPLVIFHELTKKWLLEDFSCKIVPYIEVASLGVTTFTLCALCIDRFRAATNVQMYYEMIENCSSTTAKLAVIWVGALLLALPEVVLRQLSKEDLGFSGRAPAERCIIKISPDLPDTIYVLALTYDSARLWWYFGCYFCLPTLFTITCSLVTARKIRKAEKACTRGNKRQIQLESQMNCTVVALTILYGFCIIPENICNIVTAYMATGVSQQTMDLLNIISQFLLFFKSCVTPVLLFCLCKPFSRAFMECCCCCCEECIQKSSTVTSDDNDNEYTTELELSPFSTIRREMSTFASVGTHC

[19] = molecular target: T17, 318 nonolfactory human GPCRs (Homo sapiens, UniProt Q86SP6); conditions: GPR149; C21 5 µM
T17 construct: expressed in transfected cells; host or cells: HTLA cells, transient

[20] = molecular target: T18, 318 nonolfactory human GPCRs (Homo sapiens, UniProt P48146); conditions: NPBW2; C21 5 µM
T18 construct: expressed in transfected cells; host or cells: HTLA cells, transient

[21] = molecular target: T19, 318 nonolfactory human GPCRs (Homo sapiens, UniProt Q96P67); conditions: GPR82; C21 5 µM
T19 construct: expressed in transfected cells; host or cells: HTLA cells, transient

[22] = molecular target: T20, 318 nonolfactory human GPCRs (Homo sapiens, UniProt P29274); conditions: ADORA2A; C21 5 µM
T20 construct: expressed in transfected cells; host or cells: HTLA cells, transient
T20 sequence (P29274 whole entry): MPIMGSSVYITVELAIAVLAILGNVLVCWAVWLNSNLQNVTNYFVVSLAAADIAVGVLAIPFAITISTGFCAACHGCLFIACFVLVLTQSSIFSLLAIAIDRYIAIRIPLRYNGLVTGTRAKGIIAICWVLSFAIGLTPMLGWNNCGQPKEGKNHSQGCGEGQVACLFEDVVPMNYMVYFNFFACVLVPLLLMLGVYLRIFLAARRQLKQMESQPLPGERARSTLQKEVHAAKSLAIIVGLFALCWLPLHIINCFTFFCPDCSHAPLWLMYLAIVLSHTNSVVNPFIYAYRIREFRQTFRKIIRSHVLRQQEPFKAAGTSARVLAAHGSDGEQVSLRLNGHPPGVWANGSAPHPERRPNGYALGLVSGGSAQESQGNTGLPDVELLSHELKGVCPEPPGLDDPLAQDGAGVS

[23] = molecular target: 318 nonolfactory human GPCRs (Homo sapiens, UniProt P35462); conditions: DRD3; C21 5 µM
Sequence of 318 nonolfactory human GPCRs (Homo sapiens, UniProt P35462) (P35462 whole entry): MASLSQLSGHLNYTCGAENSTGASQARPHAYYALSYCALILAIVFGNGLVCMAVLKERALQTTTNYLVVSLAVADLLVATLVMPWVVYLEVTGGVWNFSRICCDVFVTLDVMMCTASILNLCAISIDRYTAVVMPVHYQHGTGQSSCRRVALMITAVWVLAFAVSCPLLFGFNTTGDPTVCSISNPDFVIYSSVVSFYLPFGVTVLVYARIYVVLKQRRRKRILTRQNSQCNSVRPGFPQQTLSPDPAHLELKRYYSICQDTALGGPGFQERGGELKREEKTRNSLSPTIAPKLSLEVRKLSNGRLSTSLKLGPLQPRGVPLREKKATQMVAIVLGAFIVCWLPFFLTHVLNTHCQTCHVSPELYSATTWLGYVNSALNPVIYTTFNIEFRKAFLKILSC

[24] = molecular target: T21, 318 nonolfactory human GPCRs (Homo sapiens, UniProt P60893); conditions: GPR85; C21 5 µM
T21 construct: expressed in transfected cells; host or cells: HTLA cells, transient

[25] = molecular target: 318 nonolfactory human GPCRs (Homo sapiens, UniProt P28223); conditions: HTR2A; C21 5 µM
[26] = molecular target: 318 nonolfactory human GPCRs (Homo sapiens, UniProt P43220); conditions: GLP1R; C21 5 µM
[27] = molecular target: T22, 318 nonolfactory human GPCRs (Homo sapiens, UniProt Q99705); conditions: MCHR1R; C21 5 µM
T22 construct: expressed in transfected cells; host or cells: HTLA cells, transient
T22 sequence (Q99705 whole entry): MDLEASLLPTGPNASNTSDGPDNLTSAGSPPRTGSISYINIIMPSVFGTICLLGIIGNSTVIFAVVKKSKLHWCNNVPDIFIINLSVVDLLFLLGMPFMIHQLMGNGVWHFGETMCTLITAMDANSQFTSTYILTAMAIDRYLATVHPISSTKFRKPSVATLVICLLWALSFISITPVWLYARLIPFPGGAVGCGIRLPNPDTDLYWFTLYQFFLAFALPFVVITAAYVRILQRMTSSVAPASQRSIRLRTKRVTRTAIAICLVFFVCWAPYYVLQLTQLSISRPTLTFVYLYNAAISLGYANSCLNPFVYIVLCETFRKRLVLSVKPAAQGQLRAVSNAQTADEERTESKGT

[28] = molecular target: T23, 318 nonolfactory human GPCRs (Homo sapiens, UniProt P46089); conditions: GPR3; C21 5 µM
T23 construct: expressed in transfected cells; host or cells: HTLA cells, transient

[29] = molecular target: 318 nonolfactory human GPCRs (Homo sapiens, UniProt P28566); conditions: HTR1E; C21 5 µM
[30] = molecular target: T24, 318 nonolfactory human GPCRs (Homo sapiens, UniProt Q9UKP6); conditions: UTS2R; C21 5 µM
T24 construct: expressed in transfected cells; host or cells: HTLA cells, transient
T24 sequence (Q9UKP6 whole entry): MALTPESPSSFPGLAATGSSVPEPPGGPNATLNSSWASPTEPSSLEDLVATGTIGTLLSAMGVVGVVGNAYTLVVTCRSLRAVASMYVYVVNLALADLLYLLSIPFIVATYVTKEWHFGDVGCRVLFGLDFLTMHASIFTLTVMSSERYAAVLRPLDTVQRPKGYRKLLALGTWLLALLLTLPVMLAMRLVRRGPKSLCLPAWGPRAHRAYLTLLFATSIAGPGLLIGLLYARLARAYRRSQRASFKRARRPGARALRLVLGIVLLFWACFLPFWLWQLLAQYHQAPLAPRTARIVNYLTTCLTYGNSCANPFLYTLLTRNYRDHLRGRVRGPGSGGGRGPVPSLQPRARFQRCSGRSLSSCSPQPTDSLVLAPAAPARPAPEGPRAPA

[31] = molecular target: T25, 318 nonolfactory human GPCRs (Homo sapiens, UniProt P47901); conditions: AVPR1B; C21 5 µM
T25 construct: expressed in transfected cells; host or cells: HTLA cells, transient

[32] = molecular target: T26, 318 nonolfactory human GPCRs (Homo sapiens, UniProt Q8TDS7); conditions: MRGPRD; C21 5 µM
T26 construct: expressed in transfected cells; host or cells: HTLA cells, transient

[33] = molecular target: T27, 318 nonolfactory human GPCRs (Homo sapiens, UniProt O15218); conditions: GPR182; C21 5 µM
T27 construct: expressed in transfected cells; host or cells: HTLA cells, transient
T27 sequence (O15218 whole entry): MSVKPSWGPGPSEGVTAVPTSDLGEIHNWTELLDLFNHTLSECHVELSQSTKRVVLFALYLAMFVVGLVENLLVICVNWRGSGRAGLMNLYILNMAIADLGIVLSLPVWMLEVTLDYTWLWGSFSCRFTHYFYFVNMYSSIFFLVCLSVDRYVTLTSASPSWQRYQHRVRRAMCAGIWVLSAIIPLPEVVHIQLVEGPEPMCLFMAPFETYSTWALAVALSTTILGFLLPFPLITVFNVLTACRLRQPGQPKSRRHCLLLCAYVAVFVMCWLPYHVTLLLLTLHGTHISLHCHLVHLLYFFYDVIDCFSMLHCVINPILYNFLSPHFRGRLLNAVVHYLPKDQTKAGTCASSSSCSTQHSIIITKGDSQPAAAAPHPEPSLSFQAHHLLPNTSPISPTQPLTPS

[34] = molecular target: T28, 318 nonolfactory human GPCRs (Homo sapiens, UniProt Q9NS66); conditions: GPR173; C21 5 µM
T28 construct: expressed in transfected cells; host or cells: HTLA cells, transient

Structure (SMILES): c1ccc2c(c1)N=C(N1CCNCC1)c1ccccc1N2 [C21, 11-(1-piperazinyl)-5H-dibenzo[b,e][1,4]diazepine]
- FOLD OVER BASAL [1]: 1.1 fold and 0.9 fold and 1 fold
- FOLD OVER BASAL [2]: 0.9 fold and 0.6 fold and 0.8 fold
- FOLD OVER BASAL [3]: 0.9 fold and 0.8 fold and 1 fold
- FOLD OVER BASAL [4]: 0.4 fold and 0.2 fold and 0.3 fold
- FOLD OVER BASAL [5]: 1 fold and 1.1 fold and 1.3 fold
- FOLD OVER BASAL [6]: 1.1 fold and 0.9 fold
- FOLD OVER BASAL [7]: 1.1 fold and 1.2 fold
- FOLD OVER BASAL [8]: 1.3 fold and 1 fold and 0.9 fold
- FOLD OVER BASAL [9]: 0.7 fold and 0.8 fold and 1.1 fold and 1.3 fold
- FOLD OVER BASAL [10]: 0.9 fold and 1 fold and 0.8 fold
- FOLD OVER BASAL [11]: 1.1 fold and 0.7 fold
- FOLD OVER BASAL [12]: 1.2 fold and 0.8 fold and 0.7 fold
- FOLD OVER BASAL [13]: 0.5 fold and 0.4 fold and 0.3 fold
- FOLD OVER BASAL [14]: 1.1 fold and 0.9 fold and 1 fold
- FOLD OVER BASAL [15]: 0.8 fold and 0.5 fold and 1 fold
- FOLD OVER BASAL [16]: 1.1 fold and 0.9 fold and 1.4 fold
- FOLD OVER BASAL [17]: 0.7 fold and 0.9 fold and 1.1 fold
- FOLD OVER BASAL [18]: 1.1 fold and 0.9 fold and 1.2 fold and 0.7 fold
- FOLD OVER BASAL [19]: 0.8 fold and 0.5 fold and 0.7 fold and 0.9 fold
- FOLD OVER BASAL [20]: 1.1 fold and 1.3 fold and 1.4 fold
- FOLD OVER BASAL [21]: 1 fold and 0.9 fold and 1.1 fold
- FOLD OVER BASAL [22]: 0.6 fold and 0.7 fold and 0.5 fold and 0.4 fold
- FOLD OVER BASAL [23]: 3.6 fold and 4.2 fold and 3.3 fold and 5.4 fold
- FOLD OVER BASAL [24]: 0.8 fold and 1.2 fold and 1 fold
- FOLD OVER BASAL [25]: 0.1 fold and 0.2 fold
- FOLD OVER BASAL [26]: 0.6 fold and 0.8 fold and 0.7 fold and 0.5 fold
- FOLD OVER BASAL [27]: 1 fold and 0.8 fold and 1.1 fold and 1.4 fold
- FOLD OVER BASAL [28]: 0.8 fold and 0.9 fold and 0.7 fold
- FOLD OVER BASAL [29]: 1 fold and 0.9 fold and 1.1 fold
- FOLD OVER BASAL [30]: 0.8 fold and 0.9 fold and 1 fold
- FOLD OVER BASAL [31]: 0.4 fold and 0.6 fold and 0.7 fold
- FOLD OVER BASAL [32]: 0.7 fold and 0.9 fold and 0.6 fold
- FOLD OVER BASAL [33]: 0.9 fold and 1 fold and 1.1 fold and 0.7 fold
- FOLD OVER BASAL [34]: 0.8 fold and 0.5 fold
